According to patent US20060204547A1, “Drug delivery stent with extended in vivo release of anti-inflammatory” (Conor Medsystems, Inc., priority 2005, published 2006):

Test: in vivo Pimecrolimus release from stent implanted in porcine model, residual drug load by HPLC
Settings: PLGA matrix reservoir stent, FIG. 4, porcine
From the text: In the example of FIG. 4, a stent is cut from a cobalt chromium alloy according to the pattern shown in FIGS. 1 and 2 and Pimecrolimus is loaded in a PLGA matrix within reservoirs in the stent. The drug and matrix are arranged for directional delivery of the drug primarily to the mural side of the stent. The in vivo drug release rate is programmed by providing different concentrations of drug in different regions of the matrix similar to the regions shown in FIG. 3, with a luminal region 50 of primarily PLGA, a middle region 60 of about 75% Pimecrolimus and about 25% PLGA, and a mural region 70 of about 95% Pimecrolimus and about 5% PLGA. The reservoirs are filled, by volume, with about 20-25% base or luminal region, 40-45% middle region, and 25-30% mural region. The in vivo drug releases described herein are normalized for a 3.0 mm diameter×16 mm long expanded stent which has almost 500 reservoirs and a total drug volume of about 0.54 mm^3.
The measurement of in vivo Pimecrolimus release from a stent can be performed according to the following Example. The in vivo release from other implantable medical devices can be performed in a similar manner by removal of tissue and measurement of total drug load and release kinetics by high pressure liquid chromatography (HPLC).
Stents are implanted in a porcine model and explanted at selected time points by removing the entire artery section. The expanded stents are labeled and frozen. The tissue is removed from the stent by slicing the tissue on the outside of the stent lengthwise, inverting the tissue, and removing the tissue by cutting and turning the tissue inside out. The stent may still be covered by a tough elastic membrane which is then removed by splitting the membrane and peeling it off the stent. For longer time points, there will also be a tube of tissue inside the stent. This tube is separated from the stent with tweezers, turned inside out and pulled out of the stent.
The following is the test procedure for generating the in vivo release curves for Pimecrolimus in FIG. 4.
The total drug load (TDL) of Pimecrolimus from a stent is determined by extracting all the polymer and drug from the stent in the solvent acetonitrile. The amount of Pimecrolimus in a solution sample is determined by High Pressure Liquid Chromatography (HPLC). The following conditions are used:
The in vivo release kinetic (RK) for Pimecrolimus from a stent is determined by running the TDL for multiple explanted time points. The TDL for the explanted samples is subtracted from the TDL of an unimplanted stent to determine the amount of Pimecrolimus released at each of the explanted time points.

in vivo cumulative release, percent of total Pimecrolimus loaded on stent (4 hour): about 10%
in vivo cumulative release, percent of total Pimecrolimus loaded on stent (24 hour): about 25%
in vivo cumulative release, percent of total Pimecrolimus loaded on stent (2 day): about 40%
in vivo cumulative release, percent of total Pimecrolimus loaded on stent (8 day): about 50%
in vivo cumulative release, percent of total Pimecrolimus loaded on stent (30 day): about 70%
in vivo cumulative release, percent of total Pimecrolimus loaded on stent (50 day): about 70%
SMILES: CC[C@@H]1/C=C(\C)C[C@H](C)C[C@H](OC)[C@H]2O[C@@](O)(C(=O)C(=O)N3CCCC[C@H]3C(=O)O[C@H](/C(C)=C/[C@@H]3CC[C@H](Cl)[C@H](OC)C3)[C@H](C)[C@@H](O)CC1=O)[C@H](C)C[C@@H]2OC [Pimecrolimus]
